Data published in article PMC12064818, “A general assay platform to study protein pharmacology using ligand-dependent structural dynamics” (Nature Communications, 2025).

Legend:
P. pyralis FLuc = P. pyralis FLuc (Photinus pyralis, UniProt P08659); assay: FLuc enzymatic luminescence assay, P. pyralis FLuc; type: biochemical; conditions: FLuc enzymatic assay; for Efficacy (%) FLuc E: Clade S follow-up; for IC50: read-out: IC50 or SDR50 (mM) FLuc E
Procedure: The enzyme activity of FLuc-N-HiBiT, FLuc-C-HiBiT, and FLuc-C-NLuc was measured similar to P. pyralis firefly luciferase (FLuc) as previously described. […] Compounds and controls were added to each plate as described in Supplementary Data 8 with a Hornet pintool system (Wako Automation). Compounds were incubated with respective enzymes for 30–60 min at room temperature protected from light and covered by solid metal lid to prevent evaporation. […] Luciferin was incubated with FLuc enzyme for 5 min before FLuc activity was then measured on a ViewLux CCD imager (PerkinElmer), with exposure times up to ten seconds with medium to high gain settings. Data were normalized to average no enzyme control as 100% enzyme inhibition and average DMSO neutral control. See Supplementary Table 4 for additional details.
Assays were run in the presence (solid symbols) or absence
(open symbols) of 10 µM ATP. Corresponding SMIL E S for NC GC IDs and source data are provided in
Supplementary Data 3 and as a Source Data file. 10
Supplementary Table 4. Protocol for Firefly luciferase (FLuc) and NanoLuc (NLuc) enzymatic
Supplementary Table 4: Protocol for Firefly luciferase (FLuc) and NanoLuc (NLuc) enzym atic lum inescence assay
Firefly luciferase (FLuc) enzym atic lum inescence assay
Sequence Param eter Value Description
No enzym e control (colum n 1) and enzym e solution (1- 10 nM FLuc enzym e) in FLuc assay
1 Reagent 4 µLbuffer; white/solid bottom , m edium bind, high base plates (Greiner), dispensed with BioRaptr
com pounds transferred to respective colum ns with Pintool
2b Test Com pounds 23 nLconcentration range) in colum ns 5- 48; com pounds transferred to respective wells with
3 Incubation 30 m in Incubate enzym e + com pounds at am bient tem p for 30 m in, protected from light
4 Reagent 3 µLAdd 3 µL of D-luciferin substrate solution to each well (final concentration 10 µM); dispensed
(§1) 5 Detector ViewLux Read plate lum inescence (Exposure = 1- 10 sec; Gain = Medium -high; Speed = Slow;
Dispensing solution was diluted in 1X PBS, pH 7.4. […]

[1] = molecular target: FLuc-C-NLuc (firefly luciferase) (Photinus pyralis, UniProt P08659, form not given/L550V); assay: SDR assay, FLuc-C-NLuc; conditions: - ATP
Chain of FLuc-C-NLuc (firefly luciferase) (P08659 2-550 L550V, form open): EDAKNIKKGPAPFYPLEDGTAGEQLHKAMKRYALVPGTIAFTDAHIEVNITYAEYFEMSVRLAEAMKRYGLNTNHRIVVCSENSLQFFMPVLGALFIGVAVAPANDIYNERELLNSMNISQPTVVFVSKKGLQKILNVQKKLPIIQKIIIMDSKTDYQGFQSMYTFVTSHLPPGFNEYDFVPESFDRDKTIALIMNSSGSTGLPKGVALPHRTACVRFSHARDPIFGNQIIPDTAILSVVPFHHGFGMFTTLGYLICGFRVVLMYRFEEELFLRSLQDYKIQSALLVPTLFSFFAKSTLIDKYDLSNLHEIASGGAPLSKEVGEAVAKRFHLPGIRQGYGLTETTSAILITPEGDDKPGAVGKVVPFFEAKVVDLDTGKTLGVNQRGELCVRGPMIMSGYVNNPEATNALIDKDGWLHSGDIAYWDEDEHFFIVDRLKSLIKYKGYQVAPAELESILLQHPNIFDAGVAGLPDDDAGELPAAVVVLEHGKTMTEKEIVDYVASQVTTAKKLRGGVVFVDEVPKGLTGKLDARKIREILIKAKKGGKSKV

NLuc = molecular target: T1, NLuc (Oplophorus gracilirostris, UniProt Q9GV45, A31E/A60N/A81I/F95D/I117V/K70R/L54V/L99Q/M102K/N193R/P142E/Q151K/Q38R/Q45L/V71I/Y165I); type: biochemical; conditions: - ATP
T1 construct: His tag (inferred from IMAC purification); made in house; host or cells: E. coli
T1 sequence (Q9GV45 other isoform, or with tags, fused parts or gaps with the stated changes): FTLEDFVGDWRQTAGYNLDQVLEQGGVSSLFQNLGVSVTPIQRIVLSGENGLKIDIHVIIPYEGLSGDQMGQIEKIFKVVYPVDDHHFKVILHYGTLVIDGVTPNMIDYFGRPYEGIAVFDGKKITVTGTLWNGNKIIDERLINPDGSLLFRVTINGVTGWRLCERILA
Procedure: Compounds and controls were added to plates as described in Supplementary Data 8. Nano-Glo luciferase assay reagent (Promega) was prepared fresh according to manufacturer’s protocol, filtered and added at 3 μL per well across assay plates with a BioRaptr2 dispenser. Enzyme was incubated with Nano-Glo reagent for 10 min and NLuc luminescence was read on a ViewLux CCD imager (PerkinElmer), with 1 s exposure with medium gain and 2x binning. Data were normalized to average no enzyme control as 100% enzyme inhibition and average DMSO neutral control. See Supplementary Table 4 for additional details.
Supplementary Table 4. […]
Sequence Param eter Value Description […]
as §1
Dispensing solution was diluted in 1X PBS, pH 7.4.
NanoLuc luciferase (NLuc) enzym atic lum inescence assay […]
Nano-Glo luciferase assay reagent (Prom ega, Cat # N1120) prepared according to m anufacturer’s recom m endations,
4 com ponents stored at -30 °C until use, and reagent prepared fresh for each assay.
syringe filter prior to dispense.

[2] = molecular target: FLuc-C-HiBiT (firefly luciferase) (Photinus pyralis, UniProt P08659, form not given/L550V); assay: SDR assay, FLuc-C-HiBiT; conditions: SDR max. response, clade S
Chain of FLuc-C-HiBiT (firefly luciferase) (P08659 2-550 L550V, form open): as the sequence (P08659 2-550 L550V, form open) above

Chain of P. pyralis FLuc (P08659 whole entry): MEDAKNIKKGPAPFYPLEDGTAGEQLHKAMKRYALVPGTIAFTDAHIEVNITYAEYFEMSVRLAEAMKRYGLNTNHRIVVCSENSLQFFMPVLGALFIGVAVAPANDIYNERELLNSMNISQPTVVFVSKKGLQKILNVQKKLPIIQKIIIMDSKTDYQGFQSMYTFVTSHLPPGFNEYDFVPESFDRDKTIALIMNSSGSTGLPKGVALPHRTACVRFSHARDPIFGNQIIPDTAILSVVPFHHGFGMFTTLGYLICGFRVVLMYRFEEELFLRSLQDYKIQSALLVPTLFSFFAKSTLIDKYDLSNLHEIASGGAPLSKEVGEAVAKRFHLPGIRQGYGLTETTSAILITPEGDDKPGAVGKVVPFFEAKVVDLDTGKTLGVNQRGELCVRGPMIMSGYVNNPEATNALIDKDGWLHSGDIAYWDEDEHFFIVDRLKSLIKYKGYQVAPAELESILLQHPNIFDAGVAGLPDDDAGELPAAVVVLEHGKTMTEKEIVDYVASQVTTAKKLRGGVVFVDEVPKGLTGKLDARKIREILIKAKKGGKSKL

Row | SMILES | pIC50 or pSDR50 FLuc E (P. pyralis FLuc) | Efficacy (%) FLuc E (P. pyralis FLuc) | IC50 (P. pyralis FLuc) | Efficacy (%) FLuc-C-NLuc SDR (-ATP) [1] | Efficacy (%) NLuc (- ATP) (NLuc) | % Activity (max response, + ATP) [2] | % Activity (max response, - ATP) [2]
1 | O=C(NCCC1=CCCCC1)C1CCN(C(=O)c2ncn3c2COC(c2ccccc2)C3)CC1 (centres unmarked) [NCGC00449771-01] | 5.56 | -97.83% | 0.00278 mM | 0.00% | 0.00% | 338.43% | 0.00%
2 | O=C(NCc1ccccc1)C1CCN(C(=O)c2ncn3c2COC(c2ccccc2)C3)CC1 (centres unmarked) [NCGC00449773-01] | 5.56 | -92.80% | 0.00278 mM | 0.00% | 0.00% | 344.70% | 0.00%
3 | Cc1ccc(CNC(=O)C2CCN(C(=O)c3ncn4c3COC(c3ccccc3)C4)CC2)cc1 (centres unmarked) [NCGC00449774-01] | 5.01 | -84.01% | 0.00988 mM | 0.00% | 0.00% | 316.62% | 0.00%
4 | CCc1ccc(CNC(=O)C2CCN(C(=O)c3ncn4c3COC(c3ccccc3)C4)CC2)cc1 (centres unmarked) [NCGC00449775-01] | 5.01 | -61.62% | 0.00988 mM | 0.00% | 0.00% | 294.78% | 0.00%
5 | COc1cccc(CNC(=O)C2CCN(C(=O)c3ncn4c3COC(c3ccccc3)C4)CC2)c1 (centres unmarked) [NCGC00449777-01] | 5.26 | -78.20% | 0.00555 mM | 0.00% | 0.00% | 322.03% | 0.00%
6 | COc1ccc(CNC(=O)C2CCN(C(=O)c3ncn4c3COC(c3ccccc3)C4)CC2)cc1 (centres unmarked) [NCGC00449778-01] | 5.01 | -88.62% | 0.00988 mM | 0.00% | 0.00% | 301.65% | 0.00%
7 | O=C(NCc1ccc(F)cc1)C1CCN(C(=O)c2ncn3c2COC(c2ccccc2)C3)CC1 (centres unmarked) [NCGC00449784-01] | 5.26 | -93.60% | 0.00555 mM | 0.00% | 0.00% | 341.35% | 0.00%
8 | O=C(NCc1ccc(F)cc1F)C1CCN(C(=O)c2ncn3c2COC(c2ccccc2)C3)CC1 (centres unmarked) [NCGC00449785-01] | 5.06 | -69.49% | 0.0088 mM | 0.00% | 0.00% | 291.32% | 0.00%
9 | O=C(NCc1ccccc1Cl)C1CCN(C(=O)c2ncn3c2COC(c2ccccc2)C3)CC1 (centres unmarked) [NCGC00449786-01] | 5.01 | -73.36% | 0.00988 mM | 0.00% | 15.00% | 336.94% | 0.00%
10 | O=C(NCc1cccc(Cl)c1)C1CCN(C(=O)c2ncn3c2COC(c2ccccc2)C3)CC1 (centres unmarked) [NCGC00449787-01] | 4.96 | -81.06% | 0.0111 mM | 0.00% | -16.86% | 263.69% | 0.00%
11 | O=C(NCc1ccc(Cl)cc1)C1CCN(C(=O)c2ncn3c2COC(c2ccccc2)C3)CC1 (centres unmarked) [NCGC00449788-01] | 5.41 | -95.09% | 0.00393 mM | 0.00% | 0.00% | 324.91% | 0.00%
12 | O=C(NCc1ccc(F)c(Cl)c1)C1CCN(C(=O)c2ncn3c2COC(c2ccccc2)C3)CC1 (centres unmarked) [NCGC00449790-01] | 5.46 | -95.32% | 0.0035 mM | 0.00% | -17.00% | 237.76% | 0.00%
13 | O=C(NCCCc1ccccc1)C1CCN(C(=O)c2ncn3c2COC(c2ccccc2)C3)CC1 (centres unmarked) [NCGC00449797-01] | 5.36 | -79.71% | 0.00441 mM | 0.00% | 0.00% | 265.99% | 0.00%
14 | Cc1ccccc1CNC(=O)C1CCN(C(=O)c2ncn3c2COC(c2ccccc2)C3)CC1 (centres unmarked) [NCGC00449798-01] | 5.26 | -85.12% | 0.00555 mM | 0.00% | 0.00% | 370.72% | 0.00%
15 | O=C(NCc1cccc(F)c1)C1CCN(C(=O)c2ncn3c2COC(c2ccccc2)C3)CC1 (centres unmarked) [NCGC00449803-01] | 5.11 | -83.73% | 0.00784 mM | 0.00% | 0.00% | 254.28% | 0.00%
16 | CC(C)CNC(=O)C1CCN(C(=O)c2ncn3c2COC(c2ccc(F)cc2)C3)CC1 (centres unmarked) [NCGC00449805-01] |  | -24.33% |  | 0.00% | 0.00% | 48.51% | 0.00%
17 | O=C(NC1CC1)C1CCN(C(=O)c2ncn3c2COC(c2ccc(F)cc2)C3)CC1 (centres unmarked) [NCGC00449806-01] | 4.91 | -31.66% | 0.0124 mM | 0.00% | 0.00% | 47.67% | 0.00%
18 | O=C(NC1CCCCC1)C1CCN(C(=O)c2ncn3c2COC(c2ccc(F)cc2)C3)CC1 (centres unmarked) [NCGC00449807-01] | 4.96 | -25.30% | 0.0111 mM | 0.00% | 0.00% | 42.77% | 0.00%
19 | CC1CCC(NC(=O)C2CCN(C(=O)c3ncn4c3COC(c3ccc(F)cc3)C4)CC2)CC1 (centres unmarked) [NCGC00449808-01] |  | -26.58% |  | 0.00% | 0.00% | 39.00% | 0.00%
20 | O=C(NC1CCCCCC1)C1CCN(C(=O)c2ncn3c2COC(c2ccc(F)cc2)C3)CC1 (centres unmarked) [NCGC00449809-01] |  | -10.94% |  | 0.00% | 0.00% | 14.91% | 0.00%
